Experimental data as given in patent publication US20260116920A1, “HUMAN TRANSFERRIN RECEPTOR BINDING PEPTIDE” (PEPTIDREAM INC., priority 2021, published 2026).
Several values for one entry are separate records, joined by “and”; a condition that tells them apart may be missing. Equal entries are not always repeated.

Each molecule was assayed against T1, human transferrin receptor (hTfR) (Homo sapiens, UniProt P02786) (assay: Evaluation of molecular interaction between transferrin receptor (hTfR) and peptide using surface plasmon resonance (SPR)). Conditions: SPR, immobilized recombinant hTfR, single-cycle kinetics; substitution variants of 894_3151; read-out: KD.
T1 construct: made in house
T1 sequence (P02786 89-760 limits assumed): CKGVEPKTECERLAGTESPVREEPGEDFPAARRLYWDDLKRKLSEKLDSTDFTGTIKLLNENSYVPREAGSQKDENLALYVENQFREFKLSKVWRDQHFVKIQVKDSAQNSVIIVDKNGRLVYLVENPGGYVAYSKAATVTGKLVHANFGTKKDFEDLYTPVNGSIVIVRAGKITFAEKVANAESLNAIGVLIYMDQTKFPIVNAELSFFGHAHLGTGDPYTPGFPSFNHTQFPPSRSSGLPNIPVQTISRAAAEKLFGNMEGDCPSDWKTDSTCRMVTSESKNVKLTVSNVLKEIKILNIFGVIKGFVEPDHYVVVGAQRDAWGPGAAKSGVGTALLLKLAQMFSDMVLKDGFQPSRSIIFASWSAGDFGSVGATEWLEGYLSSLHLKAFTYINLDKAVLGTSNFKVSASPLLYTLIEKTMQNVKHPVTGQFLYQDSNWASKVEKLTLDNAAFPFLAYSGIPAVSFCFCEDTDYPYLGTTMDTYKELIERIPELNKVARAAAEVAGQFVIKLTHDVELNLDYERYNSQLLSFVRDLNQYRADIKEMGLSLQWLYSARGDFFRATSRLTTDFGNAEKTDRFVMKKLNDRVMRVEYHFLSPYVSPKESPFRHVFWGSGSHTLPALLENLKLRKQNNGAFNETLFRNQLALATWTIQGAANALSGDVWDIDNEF
Type: binding
Summary of the method: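 Using a Ni-NTA surface bearing covalently coupled hTfR dimer, peptides were tested at five concentrations from 5 to 100 nM. Running buffer was 10 mM HEPES pH 8.0, 150 mM NaCl, 0.05% Tween 20, 0.1% BSA, 1.0% DMSO; single-cycle sensorgrams were least-squares fitted for KD.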
CC[C@H](C)[C@@H]1NC(=O)[C@H](Cc2ccc(O)cc2)NC(=O)[C@H](Cc2ccc(O)cc2)NC(=O)[C@H](CC(N)=O)NC(=O)[C@H](Cc2c[nH]c3ccccc23)NC(=O)[C@H](C(C)C)NC(=O)[C@H](Cc2ccccc2)N(C)C(=O)[C@H](C(C)C)NC(=O)[C@H](C)NC(=O)CSC[C@@H](C(=O)NCC(=O)N[C@@H](CCCCN=[N+]=[N-])C(N)=O)NC(=O)[C@H](Cc2ccc(O)cc2)N(C)C(=O)[C@H](Cc2ccc(O)cc2)NC(=O)[C@H](CCCNC(=N)N)NC(=O)[C@H](CCCNC(=N)N)NC(=O)[C@H]([C@@H](C)CC)NC1=O [compound 13] showed a Kd of 1.3 nM.

Same assay, conditions: ratio of KD to KD of 894_3151 (SEQ ID NO: 13)
For CC[C@H](C)[C@@H]1NC(=O)[C@H](Cc2ccc(O)cc2)NC(=O)[C@H](Cc2ccc(O)cc2)NC(=O)[C@H](CC(N)=O)NC(=O)[C@H](Cc2c[nH]c3ccccc23)NC(=O)[C@H](C(C)C)NC(=O)[C@H](Cc2ccccc2)N(C)C(=O)[C@H](C(C)C)NC(=O)[C@H](C)NC(=O)CSC[C@@H](C(=O)NCC(=O)N[C@@H](CCCCN=[N+]=[N-])C(N)=O)NC(=O)[C@H](Cc2ccc(O)cc2)N(C)C(=O)[C@H](Cc2ccc(O)cc2)NC(=O)[C@H](CCCNC(=N)N)NC(=O)[C@H](CCCNC(=N)N)NC(=O)[C@H]([C@@H](C)CC)NC1=O [compound 13], the “KD (Each Peptide)/KD (894_3151)” value was 1.0 and 1.4.

Same assay, conditions: surface plasmon resonance, binding to hTfR; KD class symbol; read-out: SPR (KD value)
CC[C@H](C)[C@@H]1NC(=O)[C@H](Cc2ccc(OC)cc2)NC(=O)[C@H](Cc2ccc(O)cc2)NC(=O)[C@H](CC(N)=O)NC(=O)[C@H](Cc2c[nH]c3ccccc23)NC(=O)[C@H](C(C)C)NC(=O)[C@H](Cc2cccc(Cl)c2)N(C)C(=O)[C@H](C(C)C)NC(=O)[C@H](C)NC(=O)CSC[C@@H](C(=O)NCC(=O)N[C@@H](CCCCN=[N+]=[N-])C(N)=O)NC(=O)[C@H](Cc2ccc(O)cc2)N(C)C(=O)[C@H](Cc2ccccc2)NC(=O)[C@H](CCCNC(=N)N)NC(=O)[C@H](CCCNC(=N)N)NC(=O)[C@H]([C@@H](C)CC)NC1=O [compound 11] showed a Kd of 1 to 100 nM. With CC[C@H](C)[C@@H]1NC(=O)[C@H](Cc2ccc(OC)cc2)NC(=O)[C@H](Cc2ccc(O)cc2)NC(=O)[C@H](CC(N)=O)NC(=O)[C@H](Cc2c[nH]c3ccccc23)NC(=O)[C@H](C(C)C)NC(=O)[C@H](Cc2cccc(Cl)c2)N(C)C(=O)[C@H](C(C)C)NC(=O)[C@H](C)NC(=O)CSC[C@@H](C(=O)NCC(=O)N[C@@H](CCCCN=[N+]=[N-])C(N)=O)NC(=O)[C@H](Cc2ccc(O)cc2)N(C)C(=O)[C@H](Cc2ccccc2)NC(=O)[C@H](CCCNC(=N)N)NC(=O)[C@H](CCCCN)NC(=O)[C@H]([C@@H](C)CC)NC1=O [compound 12] the Kd was 1 to 100 nM. Work on CC[C@H](C)[C@@H]1NC(=O)[C@H](Cc2ccc(O)cc2)NC(=O)[C@H](Cc2ccc(O)cc2)NC(=O)[C@H](CC(N)=O)NC(=O)[C@H](Cc2c[nH]c3ccccc23)NC(=O)[C@H](C(C)C)NC(=O)[C@H](Cc2ccccc2)N(C)C(=O)[C@H](C(C)C)NC(=O)[C@H](C)NC(=O)CSC[C@@H](C(=O)NCC(=O)N[C@@H](CCCCN=[N+]=[N-])C(N)=O)NC(=O)[C@H](Cc2ccc(O)cc2)N(C)C(=O)[C@H](Cc2ccc(O)cc2)NC(=O)[C@H](CCCNC(=N)N)NC(=O)[C@H](CCCNC(=N)N)NC(=O)[C@H]([C@@H](C)CC)NC1=O [compound 13] yielded a Kd of less than 1 nM. Molecule CC[C@H](C)[C@@H]1NC(=O)[C@H](Cc2ccc(O)cc2)NC(=O)[C@H](Cc2ccc(O)cc2)NC(=O)[C@H](CC(N)=O)NC(=O)[C@H](Cc2c[nH]c3ccccc23)NC(=O)[C@H](C(C)C)NC(=O)[C@H](Cc2ccccc2)N(C)C(=O)[C@H](C(C)C)NC(=O)[C@H](C)NC(=O)CSC[C@@H](C(=O)NCCOCCOCCOCCOCCC(N)=O)NC(=O)[C@H](Cc2ccc(O)cc2)N(C)C(=O)[C@H](Cc2ccccc2)NC(=O)[C@@H](CCCNC(=N)N)NC(=O)[C@H](CCCNC(=N)N)NC(=O)[C@H]([C@@H](C)CC)NC1=O [compound 14] has a Kd of 1 to 100 nM. For CC[C@H](C)[C@@H]1NC(=O)[C@H](Cc2ccc(OC)cc2)NC(=O)[C@H](Cc2ccc(O)cc2)NC(=O)[C@H](CC(N)=O)NC(=O)[C@H](Cc2c[nH]c3ccccc23)NC(=O)[C@H](C(C)C)NC(=O)[C@H](Cc2ccccc2)N(C)C(=O)[C@H](C(C)C)NC(=O)[C@H](C)NC(=O)CSC[C@@H](C(=O)NCCOCCOCCOCCOCCC(N)=O)NC(=O)[C@H](Cc2ccc(O)cc2)N(C)C(=O)[C@H](Cc2ccccc2)NC(=O)[C@@H](CCCNC(=N)N)NC(=O)[C@H](CCCNC(=N)N)NC(=O)[C@H]([C@@H](C)CC)NC1=O [compound 15], the Kd was 1 to 100 nM. Work on CC[C@H](C)[C@@H]1NC(=O)[C@H](Cc2ccc(O)cc2)NC(=O)[C@H](Cc2ccc(O)cc2)NC(=O)[C@H](CC(N)=O)NC(=O)[C@H](Cc2c[nH]c3ccccc23)NC(=O)[C@H](C(C)C)NC(=O)[C@H](Cc2ccccc2)N(C)C(=O)[C@H](C(C)C)NC(=O)[C@H](C)NC(=O)CSC[C@@H](C(=O)NCCOCCOCCOCCOCCC(N)=O)NC(=O)[C@H](Cc2ccc(O)cc2)N(C)C(=O)[C@H](Cc2ccccc2)NC(=O)[C@H](CCCNC(=N)N)NC(=O)[C@H](CCCNC(=N)N)N(C)C(=O)[C@H]([C@@H](C)CC)NC1=O [compound 16] yielded a Kd of 1 to 100 nM. In the case of CC[C@H](C)[C@@H]1NC(=O)[C@H](Cc2ccc(OC)cc2)NC(=O)[C@H](Cc2ccc(O)cc2)NC(=O)[C@H](CC(N)=O)NC(=O)[C@H](Cc2c[nH]c3ccccc23)NC(=O)[C@H](C(C)C)NC(=O)[C@H](Cc2ccccc2)N(C)C(=O)[C@H](C(C)C)NC(=O)[C@H](C)NC(=O)CSC[C@@H](C(=O)NCCOCCOCCOCCOCCC(N)=O)NC(=O)[C@H](Cc2ccc(O)cc2)N(C)C(=O)[C@H](Cc2ccccc2)NC(=O)[C@H](CCCNC(=N)N)NC(=O)[C@H](CCCNC(=N)N)N(C)C(=O)[C@H]([C@@H](C)CC)NC1=O [compound 17], the Kd is reported as 1 to 100 nM. CC[C@H](C)[C@@H]1NC(=O)[C@H](Cc2ccc(O)cc2)NC(=O)[C@H](Cc2ccc(O)cc2)NC(=O)[C@H](CC(N)=O)NC(=O)[C@H](Cc2c[nH]c3ccc(Cl)cc23)NC(=O)[C@H](C(C)C)NC(=O)[C@H](Cc2ccccc2)N(C)C(=O)[C@H](C(C)C)NC(=O)[C@H](C)NC(=O)CSC[C@@H](C(=O)NCCOCCOCCOCCOCCC(N)=O)NC(=O)[C@H](Cc2ccc(O)cc2)N(C)C(=O)[C@H](Cc2ccccc2)NC(=O)[C@H](CCCNC(=N)N)NC(=O)[C@H](CCCNC(=N)N)NC(=O)[C@H]([C@@H](C)CC)NC1=O [compound 18] showed a Kd of less than 1 nM. Work on CC[C@H](C)[C@@H]1NC(=O)[C@H](Cc2ccc(OC)cc2)NC(=O)[C@H](Cc2ccc(O)cc2)NC(=O)[C@H](CC(N)=O)NC(=O)[C@H](Cc2c[nH]c3ccc(Cl)cc23)NC(=O)[C@H](C(C)C)NC(=O)[C@H](Cc2ccccc2)N(C)C(=O)[C@H](C(C)C)NC(=O)[C@H](C)NC(=O)CSC[C@@H](C(=O)NCCOCCOCCOCCOCCC(N)=O)NC(=O)[C@H](Cc2ccc(O)cc2)N(C)C(=O)[C@H](Cc2ccccc2)NC(=O)[C@H](CCCNC(=N)N)NC(=O)[C@H](CCCNC(=N)N)NC(=O)[C@H]([C@@H](C)CC)NC1=O [compound 19] yielded a Kd of less than 1 nM. For CC[C@H](C)[C@@H]1NC(=O)[C@H](Cc2ccc(O)cc2)NC(=O)[C@H](Cc2ccc(O)cc2)NC(=O)[C@H](CC(N)=O)NC(=O)[C@H](Cc2c[nH]c3ccc(Cl)cc23)NC(=O)[C@H](C(C)C)NC(=O)[C@H](Cc2ccccc2)N(C)C(=O)[C@H](C(C)C)NC(=O)[C@H](C)NC(=O)CSC[C@@H](C(=O)NCCOCCOCCOCCOCCC(N)=O)NC(=O)[C@H](Cc2ccc(O)cc2)N(C)C(=O)[C@H](Cc2ccccc2)NC(=O)[C@@H](CCCNC(=N)N)NC(=O)[C@H](CCCNC(=N)N)NC(=O)[C@H]([C@@H](C)CC)NC1=O [compound 20], the Kd was 1 to 100 nM. CC[C@H](C)[C@@H]1NC(=O)[C@H](Cc2ccc(OC)cc2)NC(=O)[C@H](Cc2ccc(O)cc2)NC(=O)[C@H](CC(N)=O)NC(=O)[C@H](Cc2c[nH]c3ccc(Cl)cc23)NC(=O)[C@H](C(C)C)NC(=O)[C@H](Cc2ccccc2)N(C)C(=O)[C@H](C(C)C)NC(=O)[C@H](C)NC(=O)CSC[C@@H](C(=O)NCCOCCOCCOCCOCCC(N)=O)NC(=O)[C@H](Cc2ccc(O)cc2)N(C)C(=O)[C@H](Cc2ccccc2)NC(=O)[C@@H](CCCNC(=N)N)NC(=O)[C@H](CCCNC(=N)N)NC(=O)[C@H]([C@@H](C)CC)NC1=O [compound 21] gave a Kd of 1 to 100 nM. CC[C@H](C)[C@@H]1NC(=O)[C@H](Cc2ccc(O)cc2)NC(=O)[C@H](Cc2ccc(O)cc2)NC(=O)[C@H](CC(N)=O)NC(=O)[C@H](Cc2c[nH]c3ccc(Cl)cc23)NC(=O)[C@H](C(C)C)NC(=O)[C@H](Cc2ccc(F)cc2)N(C)C(=O)[C@H](C(C)C)NC(=O)[C@H](C)NC(=O)CSC[C@@H](C(=O)NCCOCCOCCOCCOCCC(N)=O)NC(=O)[C@H](Cc2ccc(O)cc2)N(C)C(=O)[C@H](Cc2ccccc2)NC(=O)[C@H](CCCNC(=N)N)NC(=O)[C@H](CCCNC(=N)N)NC(=O)[C@H]([C@@H](C)CC)NC1=O [compound 22] was tested, and the Kd was less than 1 nM. With CC[C@H](C)[C@@H]1NC(=O)[C@H](Cc2ccc(OC)cc2)NC(=O)[C@H](Cc2ccc(O)cc2)NC(=O)[C@H](CC(N)=O)NC(=O)[C@H](Cc2c[nH]c3ccc(Cl)cc23)NC(=O)[C@H](C(C)C)NC(=O)[C@H](Cc2ccc(F)cc2)N(C)C(=O)[C@H](C(C)C)NC(=O)[C@H](C)NC(=O)CSC[C@@H](C(=O)NCCOCCOCCOCCOCCC(N)=O)NC(=O)[C@H](Cc2ccc(O)cc2)N(C)C(=O)[C@H](Cc2ccccc2)NC(=O)[C@H](CCCNC(=N)N)NC(=O)[C@H](CCCNC(=N)N)NC(=O)[C@H]([C@@H](C)CC)NC1=O [compound 23] the Kd was less than 1 nM. CC[C@H](C)[C@@H]1NC(=O)[C@H](Cc2ccc(O)cc2)NC(=O)[C@H](Cc2ccc(O)cc2)NC(=O)[C@H](CC(N)=O)NC(=O)[C@H](Cc2c[nH]c3ccc(Cl)cc23)NC(=O)[C@H](C(C)C)NC(=O)[C@H](Cc2ccc(F)cc2)N(C)C(=O)[C@H](C(C)C)NC(=O)[C@H](C)NC(=O)CSC[C@@H](C(=O)NCCOCCOCCOCCOCCC(N)=O)NC(=O)[C@H](Cc2ccc(O)cc2)N(C)C(=O)[C@H](Cc2ccccc2)NC(=O)[C@@H](CCCNC(=N)N)NC(=O)[C@H](CCCNC(=N)N)NC(=O)[C@H]([C@@H](C)CC)NC1=O [compound 24] was tested, and the Kd was 1 to 100 nM. Work on CC[C@H](C)[C@@H]1NC(=O)[C@H](Cc2ccc(O)cc2)NC(=O)[C@H](Cc2ccc(O)cc2)NC(=O)[C@H](CC(N)=O)NC(=O)[C@H](Cc2c[nH]c3ccc(Cl)cc23)NC(=O)[C@H](C(C)C)NC(=O)[C@H](Cc2ccc(F)cc2)N(C)C(=O)[C@H](C(C)C)NC(=O)[C@H](C)NC(=O)CSC[C@@H](C(=O)NCCOCCOCCOCCOCCC(N)=O)NC(=O)[C@H](Cc2ccc(O)cc2)N(C)C(=O)[C@H](Cc2ccccc2)NC(=O)[C@@H](CCCNC(=N)N)NC(=O)[C@H](CCCNC(=N)N)N(C)C(=O)[C@H]([C@@H](C)CC)NC1=O [compound 25] yielded a Kd of 100 to 1000 nM. In the case of CC[C@H](C)[C@@H]1NC(=O)[C@H](Cc2ccc(OC)cc2)NC(=O)[C@H](Cc2ccc(O)cc2)NC(=O)[C@H](CC(N)=O)NC(=O)[C@H](Cc2c[nH]c3ccc(Cl)cc23)NC(=O)[C@H](C(C)C)NC(=O)[C@H](Cc2ccc(F)cc2)N(C)C(=O)[C@H](C(C)C)NC(=O)[C@H](C)NC(=O)CSC[C@@H](C(=O)NCCOCCOCCOCCOCCC(N)=O)NC(=O)[C@H](Cc2ccc(O)cc2)N(C)C(=O)[C@H](Cc2ccccc2)NC(=O)[C@@H](CCCNC(=N)N)NC(=O)[C@H](CCCNC(=N)N)NC(=O)[C@H]([C@@H](C)CC)NC1=O [compound 26], the Kd is reported as 1 to 100 nM.
